Measurements reported in paper PMC6001238, “Iterative Chemical Engineering of Vancomycin Leads to Novel Vancomycin Analogs With a High in Vitro Therapeutic Index” (Frontiers in Microbiology, 2018).
Converted amounts (≈) assume the structure as drawn.

Assays:
[1] = system: human T-lymphocyte (CEM) cells; experiment: Cytostatic activity, CEM cell proliferation; assay type: cell-based; settings: mean ± SD of three experiments; highest concentration tested 250 µM; 3 days; read-out: Toxicity (IC50) CEM
Method in brief: (§1)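 Test compounds, serially diluted, received an equal volume of cell suspension at 300,000–500,000 cells/mL. After 37°C incubation (2 days for L1210, 3 for CEM, 4 for HeLa), cells were enumerated by Coulter counting and 50%-inhibitory concentrations calculated per cell type.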

E. faecalis VRE 29 = experiment: MIC, broth microdilution, vancomycin-resistant E. faecalis VRE 29 (VanA); assay type: cell-based, Enterococcus faecalis; settings: for MIC: Enterococcus faecalis VRE 29 (vancomycin-resistant), read-out: MIC; for MIC-fold improvement vs. vancomycin: VRE 29, ratio of MIC of vancomycin and MIC of analogue
Method in brief: (§2)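 Controls (ultrapure water; broth not inoculated) were included throughout CLSI-compliant broth microdilution. One condition supplemented analogue or comparator with 10 μM vancomycin, final level.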

MRSA KS2 = experiment: MIC, broth microdilution, MRSA KS2; assay type: cell-based, Staphylococcus aureus; settings: for MIC-fold improvement vs. vancomycin: MRSA KS2, ratio of MIC of vancomycin and MIC of analogue; for MIC: Staphylococcus aureus MRSA KS2, read-out: MIC
Method in brief: as §2

[2] = system: Clostridium difficile AIU ribotype 027; experiment: MIC, plate drop assay, C. difficile AIU ribotype 027; assay type: cell-based; settings: for MIC-fold improvement vs. vancomycin: C. difficile AIU ribotype 027; for MIC: C. difficile AIU ribotype 027, plate drop assay
Procedure: (§3) Bacterial lawns of both C. difficile strains were prepared by adding 0.5 mL overnight culture to 8 mL sloppy BHI agar (0.4% agar) supplemented with 1.5 g/L CaCl2⋅2H2O and 81.2 g/L MgCl2⋅6H2O, and pouring the mixture into Petri plates. A twofold dilution series of the selected vancomycin analogs, vancomycin ([…]) and daptomycin (25 μM) was spotted (10 μL) on the bacterial lawn. Spots were air-dried and the plates were incubated overnight at 37°C in an anaerobic cabinet. Ultrapure water was included as negative control. The assay was performed in triplicate. Inhibition was observed by cleared spots.

[3] = system: L1210, CEM and HeLa cell lines; experiment: Cytostatic activity, average or summary over L1210, CEM and HeLa; assay type: cell-based; settings: average of L1210, CEM and HeLa; read-out: Toxicity (IC50) Average
Method in brief: as §1

S. aureus VRSA = experiment: MIC, broth microdilution, vancomycin-resistant S. aureus (VRSA); assay type: cell-based, Staphylococcus aureus; settings: for MIC: Staphylococcus aureus VRSA, read-out: MIC; for MIC-fold improvement vs. vancomycin: VRSA, ratio of MIC of vancomycin and MIC of analogue
Method in brief: as §2

E. faecalis VRE 53 = experiment: MIC, broth microdilution, vancomycin-resistant E. faecalis VRE 53 (VanA); assay type: cell-based, Enterococcus faecalis; settings: for MIC: Enterococcus faecalis VRE 53 (vancomycin-resistant), read-out: MIC; for MIC-fold improvement vs. vancomycin: VRE 53, ratio of MIC of vancomycin and MIC of analogue
Method in brief: as §2

[4] = system: human cervix carcinoma (HeLa) cells; experiment: Cytostatic activity, HeLa cell proliferation; assay type: cell-based; settings: mean ± SD of three experiments; highest concentration tested 250 µM; 4 days; read-out: Toxicity (IC50) HeLa
Method in brief: as §1

MRSA KS1 = experiment: MIC, broth microdilution, MRSA KS1; assay type: cell-based, Staphylococcus aureus; settings: for MIC-fold improvement vs. vancomycin: MRSA KS1, ratio of MIC of vancomycin and MIC of analogue; for MIC: Staphylococcus aureus MRSA KS1, read-out: MIC
Method in brief: as §2

[5] = system: Murine leukemia (L1210) cells; experiment: Cytostatic activity, L1210 cell proliferation; assay type: cell-based; settings: mean ± SD of three experiments; highest concentration tested 250 µM; 2 days; read-out: Toxicity (IC50) L1210
Method in brief: as §1

MRSA KS6 = experiment: MIC, broth microdilution, MRSA KS6; assay type: cell-based, Staphylococcus aureus; settings: for MIC-fold improvement vs. vancomycin: MRSA KS6, ratio of MIC of vancomycin and MIC of analogue; for MIC: Staphylococcus aureus MRSA KS6, read-out: MIC
Method in brief: as §2

MRSA KS89 = experiment: MIC, broth microdilution, MRSA KS89; assay type: cell-based, Staphylococcus aureus; settings: for MIC-fold improvement vs. vancomycin: MRSA KS8, ratio of MIC of vancomycin and MIC of analogue; for MIC: Staphylococcus aureus MRSA KS8, read-out: MIC
Method in brief: as §2

E. faecalis VRE 37 = experiment: MIC, broth microdilution, vancomycin-resistant E. faecalis VRE 37 (VanA); assay type: cell-based, Enterococcus faecalis; settings: for MIC: Enterococcus faecalis VRE 37 (vancomycin-resistant), read-out: MIC
Method in brief: as §2

[6] = system: Clostridium difficile ATJ ribotype 014/20; experiment: MIC, plate drop assay, C. difficile ATJ ribotype 014/20; assay type: cell-based; settings: for MIC-fold improvement vs. vancomycin: C. difficile ATJ ribotype 014/20
Procedure: as §3

[7] = system: S. aureus VSSA (ATCC 6538); experiment: MIC, broth microdilution, vancomycin-sensitive S. aureus (VSSA/MSSA, ATCC 6538); assay type: cell-based, Staphylococcus aureus; settings: for MIC: Staphylococcus aureus VSSA, read-out: MIC; for MIC-fold improvement vs. vancomycin: VSSA, ratio of MIC of vancomycin and MIC of analogue
Method in brief: as §2

E. faecalis VSE 1 = experiment: MIC, broth microdilution, vancomycin-sensitive E. faecalis (VSE 1); assay type: cell-based, Enterococcus faecalis; settings: for MIC: Enterococcus faecalis VSE 1 (vancomycin-sensitive), read-out: MIC; for MIC-fold improvement vs. vancomycin: VSE 1, ratio of MIC of vancomycin and MIC of analogue
Method in brief: as §2

S. aureus VISA/HIP5827 = experiment: MIC, broth microdilution, vancomycin-intermediate S. aureus VISA HIP5827; assay type: cell-based, Staphylococcus aureus; settings: for MIC: Staphylococcus aureus VISA/HIP5827, read-out: MIC; for MIC-fold improvement vs. vancomycin: VISA/HIP5827, ratio of MIC of vancomycin and MIC of analogue
Method in brief: as §2

E. faecalis VRE 6 = experiment: MIC, broth microdilution, vancomycin-resistant E. faecalis VRE 6 (VanA); assay type: cell-based, Enterococcus faecalis; settings: for MIC: Enterococcus faecalis VRE 6 (vancomycin-resistant), read-out: MIC; for MIC-fold improvement vs. vancomycin: VRE 6, ratio of MIC of vancomycin and MIC of analogue
Method in brief: as §2

Row | Compound | IC50 [1] | MIC (E. faecalis VRE 29) | MIC-fold improvement vs. vancomycin (E. faecalis VRE 29) | MIC-fold improvement vs. vancomycin (MRSA KS2) | MIC (MRSA KS2) | MIC-fold improvement vs. vancomycin [2] | IC50 [3] | MIC (S. aureus VRSA) | MIC-fold improvement vs. vancomycin (S. aureus VRSA) | MIC (E. faecalis VRE 53) | MIC-fold improvement vs. vancomycin (E. faecalis VRE 53) | IC50 [4] | MIC-fold improvement vs. vancomycin (MRSA KS1) | MIC (MRSA KS1) | IC50 [5] | MIC-fold improvement vs. vancomycin (MRSA KS6) | MIC (MRSA KS6) | MIC-fold improvement vs. vancomycin (MRSA KS89) | MIC (MRSA KS89) | MIC (E. faecalis VRE 37) | other results
1 | CN[C@H](CC(C)C)C(=O)N[C@H]1C(=O)N[C@@H](CC(N)=O)C(=O)N[C@H]2C(=O)N[C@H]3C(=O)N[C@H](C(=O)N[C@H](C(=O)NCC(=O)Nc4ccc(C)cc4)c4cc(O)cc(O)c4-c4cc3ccc4O)[C@H](O)c3ccc(c(Cl)c3)Oc3cc2cc(c3O[C@@H]2O[C@H](CO)[C@@H](O)[C@H](O)[C@H]2O[C@H]2C[C@](C)(N)[C@H](O)[C@H](C)O2)Oc2ccc(cc2Cl)[C@H]1O [Vanc-4] | > 250 µM | 6.25 µM (≈ 9.97 µg/mL) | 64 | 4 | 0.20 µM (≈ 0.319 µg/mL) | <1.8 | > 250 µM | 6.25 µM (≈ 9.97 µg/mL) | 16 | 6.25 µM (≈ 9.97 µg/mL) | 64 | > 250 µM | 2 | 0.39 µM (≈ 0.622 µg/mL) | > 250 µM | 2 | 0.39 µM (≈ 0.622 µg/mL) | 2 | 0.39 µM (≈ 0.622 µg/mL) | 6.25 µM (≈ 9.97 µg/mL) | MIC [2]: >25 µM; MIC-fold improvement vs. vancomycin (E. faecalis VRE 37; VRE 37, ratio of MIC of vancomycin and MIC of analogue): 128; MIC-fold improvement vs. vancomycin [6]: 5.6; MIC [7]: 0.39 µM (≈ 0.622 µg/mL); MIC-fold improvement vs. vancomycin [7]: 2; MIC (E. faecalis VSE 1): 0.39 µM (≈ 0.622 µg/mL); MIC-fold improvement vs. vancomycin (E. faecalis VSE 1): 4; MIC (S. aureus VISA/HIP5827): 0.39 µM (≈ 0.622 µg/mL); MIC-fold improvement vs. vancomycin (S. aureus VISA/HIP5827): 16; MIC (E. faecalis VRE 6): 3.13 µM (≈ 4.99 µg/mL); MIC-fold improvement vs. vancomycin (E. faecalis VRE 6): 64
2 | CNC(CC(C)C)C(=O)NC1C(=O)NC(CC(N)=O)C(=O)NC2C(=O)NC3C(=O)NC(C(=O)NC(C(=O)NCCCNC(=O)c4ccc5cc(OC)ccc5c4)c4cc(O)cc(O)c4-c4cc3ccc4O)C(O)c3ccc(c(Cl)c3)Oc3cc2cc(c3OC2OC(CO)C(O)C(O)C2OC2CC(C)(N)C(O)C(C)O2)Oc2ccc(cc2Cl)C1O (stereo not shown) [Vanc-29] | > 250 µM | 6.25 µM (≈ 10.6 µg/mL) | 64 | 2 | 0.39 µM (≈ 0.659 µg/mL) | 7 | 185 µM | 3.13 µM (≈ 5.29 µg/mL) | 32 | 25 µM (≈ 42.2 µg/mL) | 16 | 54 ± 44 µM | 2 | 0.39 µM (≈ 0.659 µg/mL) | > 250 µM | 2 | 0.39 µM (≈ 0.659 µg/mL) | 2 | 0.39 µM (≈ 0.659 µg/mL) | 12.5 µM (≈ 21.1 µg/mL) | MIC-fold improvement vs. vancomycin [6]: 5.6; MIC [7]: 0.39 µM (≈ 0.659 µg/mL); MIC-fold improvement vs. vancomycin [7]: 2; MIC (E. faecalis VSE 1): 0.20 µM (≈ 0.338 µg/mL); MIC-fold improvement vs. vancomycin (E. faecalis VSE 1): 8; MIC (S. aureus VISA/HIP5827): 0.39 µM (≈ 0.659 µg/mL); MIC-fold improvement vs. vancomycin (S. aureus VISA/HIP5827): 16; MIC (E. faecalis VRE 6): 1.56 µM (≈ 2.64 µg/mL); MIC-fold improvement vs. vancomycin (E. faecalis VRE 6): 128
3 | CN[C@H](CC(C)C)C(=O)N[C@H]1C(=O)N[C@@H](CC(N)=O)C(=O)N[C@H]2C(=O)N[C@H]3C(=O)N[C@H](C(=O)N[C@H](C(=O)NCCNC(=O)/C=C/c4ccc(F)cc4)c4cc(O)cc(O)c4-c4cc3ccc4O)[C@H](O)c3ccc(c(Cl)c3)Oc3cc2cc(c3O[C@@H]2O[C@H](CO)[C@@H](O)[C@H](O)[C@H]2O[C@H]2C[C@](C)(N)[C@H](O)[C@H](C)O2)Oc2ccc(cc2Cl)[C@H]1O [Vanc-22] | > 250 µM | 12.5 µM (≈ 20.5 µg/mL) | 32 | 2 | 0.39 µM (≈ 0.639 µg/mL) | 7 | 192 µM | 3.13 µM (≈ 5.13 µg/mL) | 32 | 25 µM (≈ 41 µg/mL) | 16 | 76 ± 11 µM | 2 | 0.39 µM (≈ 0.639 µg/mL) | > 250 µM | 2 | 0.39 µM (≈ 0.639 µg/mL) | 2 | 0.39 µM (≈ 0.639 µg/mL) | 12.5 µM (≈ 20.5 µg/mL) | MIC [2]: 6.25 µM (≈ 10.2 µg/mL); MIC-fold improvement vs. vancomycin [6]: 5.6; MIC ([6]; C. difficile ATJ ribotype 014/20, plate drop assay): 6.25 µM (≈ 10.2 µg/mL); MIC [7]: 0.39 µM (≈ 0.639 µg/mL); MIC-fold improvement vs. vancomycin [7]: 2; MIC (E. faecalis VSE 1): 0.39 µM (≈ 0.639 µg/mL); MIC-fold improvement vs. vancomycin (E. faecalis VSE 1): 4; MIC (S. aureus VISA/HIP5827): 1.56 µM (≈ 2.56 µg/mL); MIC-fold improvement vs. vancomycin (S. aureus VISA/HIP5827): 4; MIC (E. faecalis VRE 6): 1.56 µM (≈ 2.56 µg/mL); MIC-fold improvement vs. vancomycin (E. faecalis VRE 6): 128
